Measurements as given in US10874667B2, “Pharmaceutical salt of antitumor heterocyclic imidazole compound” (SHANGHAI HUILUN LIFE SCIENCE & TECHNOLOGY CO., LTD., priority 2016, dated 2020).

experiment: Solubility test in water (HPLC); assay type: physicochemical; conditions: stirred at constant temperature for 30 min
Procedure: The solubility of the salt of the compound of Formula (I) of the present invention was determined by the following method:
a) About 200 mg of the salt of the compound of Formula (I) was accurately weighed, dissolved in 200 ml of an aqueous solution, stirred at a constant temperature for 30 min, and allowed to stand. The supernatant was centrifuged, and then the supernatant of the centrifugate was taken and used as a test solution.
b) About 200 mg of the compound of Formula (I) was accurately weighed, dissolved in aqueous methanol, and quantitatively diluted into a solution containing 0.02 mg of free base per 1 ml.
The solution was used as a reference solution.
The table below compares the solubilities of the compound of Formula (I) and its various forms of salts.

Which Solubility in water does the source give for O=C(c1cc(Cc2n[nH]c(=O)c3ccccc23)ccc1F)N1CCN(c2ccc3[nH]cnc3n2)CC1.O=S(=O)(O)c1ccccc1 [4-(3-(4-(1H-imidazo[4,5-b]pyridine-5-yl)piperazine-1-carbonyl)-4-fluorobenzyl)phthalazine-1(dihydro)-one benzenesulfonate] here?
The Solubility in water was 230 µg/mL.

With Cl.O=C(c1cc(Cc2n[nH]c(=O)c3ccccc23)ccc1F)N1CCN(c2ccc3[nH]cnc3n2)CC1 [4-(3-(4-(1H-imidazo[4,5-b]pyridine-5-yl)piperazine-1-carbonyl)-4-fluorobenzyl)phthalazine-1(dihydro)-one hydrochloride] as the compound, how does the Solubility in water read?
Its Solubility in water is 340 µg/mL.

With O=C(c1cc(Cc2n[nH]c(=O)c3ccccc23)ccc1F)N1CCN(c2ccc3[nH]cnc3n2)CC1.O=S(=O)(O)CCO [4-(3-(4-(1H-imidazo[4,5-b]pyridine-5-yl)piperazine-1-carbonyl)-4-fluorobenzyl)phthalazine-1(dihydro)-one hydroxyethanesulfonate] as the compound, how does the Solubility in water read?
The Solubility in water was 310 µg/mL.

For Cc1ccc(S(=O)(=O)O)cc1.O=C(c1cc(Cc2n[nH]c(=O)c3ccccc23)ccc1F)N1CCN(c2ccc3[nH]cnc3n2)CC1 [4-(3-(4-(1H-imidazo[4,5-b]pyridine-5-yl)piperazine-1-carbonyl)-4-fluorobenzyl)phthalazine-1(dihydro)-one p-toluenesulfonate], which Solubility in water is on record?
The Solubility in water was 40 µg/mL.

With CS(=O)(=O)O.O=C(c1cc(Cc2n[nH]c(=O)c3ccccc23)ccc1F)N1CCN(c2ccc3[nH]cnc3n2)CC1 [4-(3-(4-(1H-imidazo[4,5-b]pyridine-5-yl)piperazine-1-carbonyl)-4-fluorobenzyl)phthalazine-1(dihydro)-onemethanesulfonate] as the compound, how does the Solubility in water read?
Its Solubility in water is 300 µg/mL.

same assay, conditions: thermodynamic from solid, stirred at constant temperature for 30 min

With O=C(c1cc(Cc2n[nH]c(=O)c3ccccc23)ccc1F)N1CCN(c2ccc3[nH]cnc3n2)CC1 [Formula I, 4-(3-(4-(1H-imidazo[4,5-b]pyridine-5-yl)piperazine-1-carbonyl)-4-fluorobenzyl)phthalazine-1(dihydro)-one] as the compound, how does the solubility at 30 min read?
The solubility at 30 min was 1 µg/mL.
